According to patent publication US20100021524A1 (OsteoGeneX Inc., priority 2008, published 2010):
Where a name gives a salt, the structure may show the parent alone.

What was measured:
[1] = test system: C57BL/6 mice; assay: Bone growth with pimethixene: 30-day daily i.p. treatment, serum osteocalcin (EIA Elisa) and trabecular bone volume (micro-CT); format: in vivo, mouse; details: four month old male C57BL/6 mice, daily i.p. for 30 days, FIG. 2
Experimental: Four month old male C57BL/6 mice were treated daily with saline vehicle or the sclerostin inhibitor of pimethixene at several doses (via i.p) for 30 days. Study endpoints included a biochemical marker of bone formation; osteocalcin, measured by EIA Elisa, and measurement of trabecular bone volume by mico-CT analysis on the proximal tibia and spine (lumbar 5).

[2] = test system: Wnt pathway; assay: Modulation of the Wnt pathway to promote bone growth (FIG. 1); details: doses of 2.5 ng (low), 125 ng (high) and 1250 ng (very high)
Experimental: (§1) For example, the mouse test animal is treated with a predetermined dose of a SOST antagonist candidate for a complete dosing schedule. A control mouse is treated with a control solution, preferably a non-irritating buffer solution or other carrier. Once the dosing schedule has been completed, both test and control animals are examined with sacrifice using micro-CT to determine the quantity of bone formation present.

[3] = test system: mouse; assay: Mouse bone formation assay for SOST antagonist candidates, examined by micro-CT; format: in vivo; details: complete dosing schedule, versus control solution
Text: Compounds useful in the methods of the present invention can be identified via a variety of methods known to one of skill in the art. Several exemplary methods for identifying such antagonists are described herein, including cell-based and in vitro techniques (Journal of Bone and Mineral Research 2006, 21(11), 1738-1749). A general method of identifying SOST antagonists involves evaluating the effects of antagonist candidates on bone formation under controlled conditions. Preferably bone formation is determined using micro-CT techniques on live animals. Preferred animals include rodents, more preferred are primates. Femur, tibia and vertebrae bones are particularly useful subjects for such study.
Briefly, the test animal is treated with a predetermined dose of a SOST antagonist candidate. […]
Once the dosing schedule has been completed, both test and control animals are examined to determine the quantity of bone formation present. […] Where necessary, levels of bone formation can be calculated by determining the volume of bone formation present in each animal. […]
as §1, with “A control mouse is treated with a control solution, preferably a non-irritating buffer solution or other carrier.” left out

| Structure (SMILES) | increase in bone volume for lumbar 5 over baseline controls, μ-CT analysis ([1]; dosed at 0.01 mg/kg, 0.1 mg/kg or 10 mg/kg) | percent increase in serum osteocalcin bone formation marker over saline controls ([1]; dosed between 10 mg/kg and 0.1 mg/kg) | modulating the Wnt pathway to promote bone growth [2] | bone growth (quantity of bone formation present, micro-CT) [3] |
| --- | --- | --- | --- | --- |
| CN1CCC(=C2c3ccccc3Sc3ccccc32)CC1 [pimethixene maleate] | greater than 30% | 25% | modulating the Wnt pathway to promote bone growth |  |
| CN1CCC(=C2c3ccccc3Sc3ccccc32)CC1 [pimethixene] |  |  |  | promoting bone growth |
